Measured values as given in patent US20250204515A1, “Heparanase Inhibition for Graft Protection” (University of Pittsburgh - Of the Commonwealth System of …, priority 2022, published 2025).

Experiments:
[1] = system: syndecan-1, glycosaminoglycans (GAGs); test: Glycocalyx components in lung grafts 2 h after transplantation (western blot, DMMB); assay type: in vivo, rat; conditions: vs control; for GAGs remaining in the lung tissue: DMMB assay, 2 h after transplant; for syndecan-1 protein expression in the plasma membrane: western blot, 2 h after transplantation
Description: Western blotting. Whole cell lysate was isolated with 2% SDS buffer (2% SDS, 50 mM Tris-HCl pH 6.8, 10% glycerol) supplemented with protease inhibitors (Sigma-Aldrich). Membrane protein fractions were obtained with the Mem-PER Plus Membrane Protein Extraction Kit (Thermo Scientific) following manufacturer's instructions. Proteins were resolved on 10% SDS-PAGE followed by transfer to 0.2 μm nitrocellulose membranes (Bio-Rad Laboratories, Hercules, CA, USA). Membranes were blocked with 5% non-fat milk at room temperature for 2 h and then incubated with the following primary antibodies at 4° C. overnight: anti-syndecan-1 (1:1000; Santa Cruz Biotechnology, Inc., Dallas, Tx, USA), anti-heparanase-1 (1:1000; Boster Biological, Pleasanton, CA, USA), anti-VE-Cadherin (1:1000; Abcam), anti-HSP90 (1:1000; Abcam) and anti-@-actin (1:50,000; Sigma-Aldrich). Membranes were then incubated with either anti-mouse (1:5000) or anti-rabbit (1:3000) horse-radish peroxidase (HRP)-conjugated polyclonal secondary antibody (Abcam, Cambridge, MA, USA), or IRDye 800CW anti-rabbit IgG or 680CW anti-mice secondary antibody (LI-COR Biosciences, Lincoln, NE, USA) at room temperature for 2 h. Proteins were visualized using an enhanced chemiluminescence kit (Abcam), and protein bands were imaged and analyzed using Image Lab software (Version 6.0; Bio-Rad Laboratories, Inc.) or Odyssey 9120 Infrared Imaging System (LI-COR Biosciences).
Determination of glycocalyx components in rat lung grafts. For rat lung tissue, syndecan-1 released into the perfusate during EVLP was measured with a rat-specific ELISA (Immunotag Rat SDC1 (Syndecan-1) ELISA, G-Biosciences, St. Louis, MO). Glycocalyx glycosaminoglycans (GAGs) were quantitated using the 1,9-dimethylmethylene blue (DMMB, Millipore Sigma) method with modifications. A 1 L solution of DMMB (pH˜3.0) was prepared by dissolving 16 mg DMMB in distilled H2O containing 3.04 g/A glycine, 1.6 g/A NaCl and 95 ml 0.1 M acetic acid. Briefly, 1 ml DMMB solution was added to 20 μl lung tissue lysate then incubated at room temperature for 1 h on a tube rotator. The tubes were then centrifuged at 14,000 rpm for 15 min at 4° C. Supernatants were carefully decanted, 200 μL sodium lauryl sulfate buffer (2.08 mM) was added to each pellet, and the tubes were vortexed until GAG-DMMB pellets were no longer visible. GAG content in each sample was measured spectrophotometrically at 656 nm.

rat lung grafts = test: Rat orthotopic left lung transplantation of donor-pretreated lungs: graft function, edema, histology, cell infiltration; assay type: in vivo; conditions: for T-cell (CD3+) infiltration / macrophage (CD68+) infiltration / polymorphonuclear neutrophil (PMN) infiltration: 2 h after reperfusion; for T-cell (CD3+) infiltration / macrophage (CD68+) infiltration / wet-to-dry (W/D) ratio / polymorphonuclear neutrophil (PMN) infiltration: vs control; for congestion, swollen alveolar walls, secretions in the airways (H&E) / wet-to-dry (W/D) ratio / PaO2/FiO2 (P/F) ratio: 2 h after transplantation, donor pre-treatment; for PaO2/FiO2 (P/F) ratio: vs control lung grafts; for polymorphonuclear neutrophil (PMN) infiltration: naphthol staining
Excerpt: Study design. To investigate the stability of eGC in lung grafts and its potential influence on graft function and quality after reperfusion, we established rat models with damaged or preserved lung eGC and performed orthotopic, single, left-lung transplantation or EVLP using the lungs from these rats. Animals were randomly assigned 4 different groups; (1) native lungs (normal control), (2) Control: lungs with eGC damage, (3) Heparin: lungs with eGC preserved by heparin, and (4) NAH: lungs with eGC preserved by NAH. Shedding of the eGC was induced in vivo by donor systemic ischemia. After 1 h of ischemia in vivo, lungs were procured in a standardized fashion for lung transplantation then either directly transplanted or subjected to EVLP and assessed biologically. Native lungs were not subjected to any insult.
Models of lungs with damaged or preserved eGC and rat orthotopic left lung transplantation. Rats were sedated with 4% isoflurane via inhalation for tracheostomy and then placed on a ventilator. They received 5% isoflurane with 100% O2 via inhalation through the ventilator for 15 min to induce a deep state of anesthesia that causes arrest of spontaneous breathing. The rats were disconnected from the ventilator 5 min after intravenous administration of heparin (300 IU), a heparin derivative without anti-coagulant properties (300 μg; N-acetyl heparin (NAH) (Millipore Sigma, Burlington, MA)), or saline (300 μl, control) through the jugular vein. Cardiac activity and blood oxygen saturation were monitored after disconnection from ventilator until cardiac arrest. One hour after induction of ischemia, a median thoracotomy was performed, and blood was flushed from the lungs with cold, low potassium dextran solution (PERFADEX; XVIVO Perfusion AB) through the pulmonary artery. Then, the heart-lung bloc was isolated and stored in cold PERFADEX for 6 h before transplantation.
Orthotopic single-lung transplantation of the left lung was performed using the cuff method. Two hours after reperfusion, the naive lung was clamped, 100% 02 was administered for 5 min through a ventilator, and the recipient's blood was sampled from the graft pulmonary vein for blood gas analysis.
Wet-to-dry (W/D) weight ratio. The weight of the lung tissues was measured immediately after collection (wet weight). The lung tissue was then placed into a 60° C. oven to dry for 72 h. Tissues were weighed to deter-mine the dry weight, and the wet-to-dry ratio was calculated.
Tissue staining and histopathological analysis. Formalin-fixed, paraffin-embedded lung tissues collected 2 h after transplantation were sectioned to 4-μm thickness and stained with hematoxylin and eosin. The sections were also stained for immunofluorescent imaging using primary antibodies for CD3 (Invitrogen), CD68 (Invitrogen), or syndecan-1 (Santa Cruz), and Hoechst 33342 dye for nuclear staining. Primary antibody was detected by secondarily Cy5-conjugated goat anti-rabbit IgG (Invitrogen) and Cy3-conjugated goat anti-mouse IgG (Millipore Sigma).
Polymorphonuclear neutrophils (PMNs) were stained using a naphthol AS-D chloroacetate esterase staining kit (Millipore Sigma) and identified by nuclear morphology staining in bright red. Stained slides were scanned with a whole-slide image scanner (Axio Scan.Z1; Carl Zeiss) and analyzed with digital image processing software (ZEN lite blue edition; Carl Zeiss). Stained cells were counted by two investigators with the identity of the samples masked.

| Substance | GAGs remaining in the lung tissue [1] | syndecan-1 protein expression in the plasma membrane [1] | T-cell (CD3+) infiltration (rat lung grafts) | macrophage (CD68+) infiltration (rat lung grafts) | congestion, swollen alveolar walls, secretions in the airways (H&E) (rat lung grafts) | wet-to-dry (W/D) ratio (rat lung grafts) | PaO2/FiO2 (P/F) ratio (rat lung grafts) | polymorphonuclear neutrophil (PMN) infiltration (rat lung grafts) |
| --- | --- | --- | --- | --- | --- | --- | --- | --- |
| heparin | significantly more GAGs remained | markedly higher | significantly reduced | significantly reduced | not observed | lower | significantly higher | significantly reduced |
| N-acetyl heparin [NAH] | significantly more GAGs remained | markedly higher | significantly reduced | significantly reduced | not observed | lower | significantly higher | significantly reduced |
